Experimental data published in ChEMBL document CHEMBL4622839, “Induction of enantio-selective apoptosis in human leukemia HL-60 cells by (S)-erypoegin K, an isoflavone isolated from Erythrina poeppigiana” (Bioorg Med Chem, 2020).
The source made the active and inactive calls. No cut-off for these calls is given here.

Columns and labels:
HL-60 [1] = test: Antiproliferative activity against human HL60 cells assessed as inhibition of cell viability incubated for 48 hrs by MTS assay; assay type: functional, cell-based; details: for IC50: HL-60, 48 h
HL-60 [2] = test: Antiproliferative activity against human HL60 cells assessed as inhibition of cell viability up to 50 uM incubated for 48 hrs by MTS assay; assay type: functional, cell-based
HL-60 [3] = test: Induction of apoptosis in human HL60 cells assessed as nuclear condensation/fragmentation at 5 uM incubated for 6 hrs by Hoechst 33342 staining-based fluorescence microscopic method; assay type: functional, cell-based
HL-60 [4] = test: Induction of apoptosis in human HL60 cells assessed as DNA ladder formation at 1 to 3 uM incubated for 5 hrs by agarose gel electrophoresis method; assay type: functional, cell-based
HL-60 [5] = test: Induction of apoptosis in human HL60 cells assessed as increase in MG level accumulation at 1 to 3 uM incubated for 8 to 24 hrs by HLPC analysis; assay type: functional, cell-based
Lactoylglutathione lyase = Lactoylglutathione lyase (Homo sapiens, UniProt Q04760); test: Inhibition of recombinant human Glyoxalase-1 expressed in Escherichia coli BL21 (DE3) assessed as inhibition of S-D-lactoylglutathione formation using MG and reduced glutathione as substrate measured for 2 mins by spectrophotometric method
HL-60 [6] = test: Induction of apoptosis in human HL60 cells assessed as caspase 3 activation at 0.1 to 0.5 uM incubated up to 24 hrs by flurometric analysis; assay type: functional, cell-based
HL-60 [7] = test: Induction of apoptosis in human HL60 cells assessed as caspase 9 activation at 0.1 to 0.5 uM incubated up to 24 hrs by flurometric analysis; assay type: functional, cell-based
Homo sapiens = species on record: Homo sapiens; test: Selectivity index, ratio of IC50 for recombinant human Glyoxalase-1 expressed in Escherichia coli BL21 (DE3) to IC50 for antiproliferative activity against human HL60 cells

Lactoylglutathione lyase, sequence (Q04760 whole entry): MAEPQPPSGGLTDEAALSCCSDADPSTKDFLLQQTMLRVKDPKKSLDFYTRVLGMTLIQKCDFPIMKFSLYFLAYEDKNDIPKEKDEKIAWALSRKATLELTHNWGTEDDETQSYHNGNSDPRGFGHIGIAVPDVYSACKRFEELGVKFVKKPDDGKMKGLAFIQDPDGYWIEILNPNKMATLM

IC50 (Lactoylglutathione lyase) [µM] | IC50 (HL-60 [1]) [µM] | Compound | Activity (HL-60 [1]) | Activity (HL-60 [2]) | Activity (HL-60 [3]) | Activity (HL-60 [4]) | Activity (HL-60 [5]) | Activity (HL-60 [6]) | Activity (HL-60 [7]) | Ratio IC50 (Homo sapiens)
100 |  | CC(C)(O)[C@H]1Cc2c(cc(O)c3c(=O)c(-c4ccc(O)cc4)coc23)O1 | inactive | inactive | inactive | inactive | inactive | inactive | inactive | 
109 | 0.175 | CC(C)(O)C1Cc2c(cc(O)c3c(=O)c(-c4ccc(O)cc4)coc23)O1 (racemic) |  |  |  |  |  |  |  | 625
100 | 0.09 | CC(C)(O)[C@@H]1Cc2c(cc(O)c3c(=O)c(-c4ccc(O)cc4)coc23)O1 |  |  | Active | Active |  |  |  | 
